Measured values published in patent EP4737473A1, “NOVEL COMPLEMENT INHIBITOR AND PREPARATION, USE AND PRODUCT THEREOF” (Liu, Xiaorong, priority 2023, dated 2025).
pIC50, pKd: −log10 of the molar value. Positions of bridges follow the written chain, without caps; N, C: chain ends. Non-standard residues stand in square brackets, D forms with d. Residues, ends and D or L forms follow the SMILES beside them. ξ: configuration not given here. Bpa = N[C@@H](Cc1ccc(C(=O)c2ccccc2)cc1)C(=O)O; Trp(7-aza) = N[C@@H](Cc1c[nH]c2ncccc12)C(=O)O; Trp(1-Me) = Cn1cc(C[C@H](N)C(=O)O)c2ccccc21; ξTrp(5-F) = NC(Cc1c[nH]c2ccc(F)cc12)C(=O)O; 2Nal = N[C@@H](Cc1ccc2ccccc2c1)C(=O)O; Api = NC1(C(=O)O)CCNCC1; Abu = CC[C@H](N)C(=O)O; Aib = CC(C)(N)C(=O)O

How the values were obtained:
[1] = target: T1, His-tag recombinant human C3 protein (Homo sapiens, UniProt P01024); test: BLI affinity assay (Bio-Layer Interferometry, Ni-NTA biosensor, ForteBio Octet); assay type: binding; design: purchased Sino Biological Inc; conditions: for pKd: 60s association, 90s dissociation, PBS pH 8.0; for kon: association rate constant; for koff: dissociation rate constant, read-out: kdis
Excerpt: The BLI affinity assay was used to verify the effects of the cyclic peptides of the disclosure and the control product.
BLI refers to Bio-Layer Interferometry. The principle is: after visible light is emitted from the spectrometer, two reflected spectra are formed at the two interfaces of the optical film layer at the end of the sensor, and an interference spectrum is formed. Any change in film thickness caused by molecular binding can be reflected by the displacement value of the interference spectrum.
Subsequently, a 90s dissociation step was performed after the 60s association phase to obtain the Kd value by fitting the curve.
The stock solution was dissolved in 15% acetonitrile, and the working solution was serially diluted with PBS at pH 8.0.

[2] = test system: classical pathway complement; test: Classical pathway complement inhibition assay (ELISA, human plasma); assay type: biochemical; conditions: human plasma 1:40 in VBS, 15 minutes at room temperature
Protocol: The half-inhibitory concentration values of SEQ ID NO.1-6 were evaluated by the classical pathway complement inhibition assay. The association constant (Ka), dissociation constant (Kd), and equilibrium dissociation constant (KD) were determined by surface plasmon resonance (SPR) assay.
The complement inhibition assay can be performed with reference to the following steps: Evaluation was performed by an established enzyme-linked immunosorbent assay (ELISA). Under normal ambient temperature, 96-well plates were coated with 50 µL of 1% ovalbumin in PBS for 2 hours. […] After washing, complement activation (C3b/iC3b/C3d bound to immune complexes) was detected using HRP-conjugated goat α-human C3 antibody (1:1000; MP Biomedicals). The reaction was performed using HRP substrate (0.05% ABTS and 0.1% H2O2 dissolved in 0.1 M sodium citrate, pH 4.2), and the absorbance was read at 405 nm using a VICTOR multi-label plate reader (PerkinElmer, Waltham, MA). 100% complement activation was obtained in the absence of the C3 peptide inhibitor, and the absorbance data obtained at 405 nm were converted to the percentage of complement inhibition. […] Surface plasmon resonance (SPR) experiments were performed using a Biacore 3000 instrument (GE Healthcare, Piscataway Town, NJ), and the binding affinity and kinetic characteristics of the cyclic peptides were evaluated by SPR.

C3 protein = C3 protein (Homo sapiens, UniProt P01024); test: MST affinity assay (microscale thermophoresis, Monolith NT.115); assay type: binding; conditions: polypeptide about 200 nM, 0.5×PBS, 15% ACN, maximum protein concentration 0.25 µM
[3] = target: C3 in human plasma (human) (UniProt P01024); test: cell-based or functional assay
[4] = target: T1, His-tag recombinant human C3 protein; test: BLI (ForteBio Octet), His-tag C3 on Ni-NTA biosensor, peptide in solution
Target sequence in this assay (P01024 23-1663 limits assumed): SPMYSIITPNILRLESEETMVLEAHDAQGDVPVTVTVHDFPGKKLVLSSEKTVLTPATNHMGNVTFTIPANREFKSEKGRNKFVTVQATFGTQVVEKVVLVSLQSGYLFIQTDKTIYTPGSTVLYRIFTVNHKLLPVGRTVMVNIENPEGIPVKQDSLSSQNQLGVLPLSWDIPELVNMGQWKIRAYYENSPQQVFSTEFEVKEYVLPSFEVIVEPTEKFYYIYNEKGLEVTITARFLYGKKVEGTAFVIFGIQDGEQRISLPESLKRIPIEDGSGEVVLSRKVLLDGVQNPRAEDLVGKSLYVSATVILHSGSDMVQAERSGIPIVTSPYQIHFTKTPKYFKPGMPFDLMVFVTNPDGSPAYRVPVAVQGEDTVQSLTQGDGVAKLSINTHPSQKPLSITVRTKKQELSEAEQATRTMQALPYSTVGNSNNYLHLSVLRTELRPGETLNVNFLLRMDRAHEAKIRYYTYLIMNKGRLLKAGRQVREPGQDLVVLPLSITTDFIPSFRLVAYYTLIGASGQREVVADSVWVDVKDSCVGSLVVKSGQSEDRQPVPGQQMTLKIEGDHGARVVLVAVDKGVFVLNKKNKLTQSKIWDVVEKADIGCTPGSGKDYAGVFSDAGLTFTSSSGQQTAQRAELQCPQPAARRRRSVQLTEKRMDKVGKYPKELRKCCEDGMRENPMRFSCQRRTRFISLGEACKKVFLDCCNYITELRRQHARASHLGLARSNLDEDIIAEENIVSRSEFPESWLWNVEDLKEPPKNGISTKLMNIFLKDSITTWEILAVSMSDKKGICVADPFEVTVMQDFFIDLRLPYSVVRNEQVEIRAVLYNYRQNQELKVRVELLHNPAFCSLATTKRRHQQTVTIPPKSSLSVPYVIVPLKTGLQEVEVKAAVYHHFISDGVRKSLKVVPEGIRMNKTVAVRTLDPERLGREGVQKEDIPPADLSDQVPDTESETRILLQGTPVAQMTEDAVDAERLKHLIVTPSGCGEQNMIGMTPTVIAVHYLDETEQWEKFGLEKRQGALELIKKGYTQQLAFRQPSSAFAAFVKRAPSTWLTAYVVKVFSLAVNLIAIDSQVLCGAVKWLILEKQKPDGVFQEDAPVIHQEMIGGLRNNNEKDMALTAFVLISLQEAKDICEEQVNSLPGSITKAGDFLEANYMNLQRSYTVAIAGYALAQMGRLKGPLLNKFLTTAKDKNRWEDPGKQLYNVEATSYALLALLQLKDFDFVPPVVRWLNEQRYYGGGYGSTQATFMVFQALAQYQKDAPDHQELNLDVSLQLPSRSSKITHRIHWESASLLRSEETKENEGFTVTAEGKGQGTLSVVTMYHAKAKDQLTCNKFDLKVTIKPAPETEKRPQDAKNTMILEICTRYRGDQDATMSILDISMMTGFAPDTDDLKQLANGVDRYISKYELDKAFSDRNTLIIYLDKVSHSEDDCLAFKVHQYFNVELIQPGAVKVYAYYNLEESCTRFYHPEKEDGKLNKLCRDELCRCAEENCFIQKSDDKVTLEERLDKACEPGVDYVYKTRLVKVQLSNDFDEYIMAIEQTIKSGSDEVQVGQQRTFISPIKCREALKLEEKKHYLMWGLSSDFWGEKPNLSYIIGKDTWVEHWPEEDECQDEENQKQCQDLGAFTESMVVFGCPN

[5] = target: C3 protein (MST affinity assay) (Homo sapiens (Human)) (UniProt P01024); test: MST (Monolith NT.115), retest; fluorescently labeled peptide, C3 protein titrated
[6] = target: C3 protein (MST affinity assay) (Homo sapiens (Human)) (UniProt P01024); test: MST (Monolith NT.115), fluorescently labeled peptide ~200 nM, C3 protein titrated from 0.25 uM

Sequence of C3 in human plasma (human) (P01024 23-1663): as the sequence (P01024 23-1663 limits assumed) above
Sequence of C3 protein (MST affinity assay) (Homo sapiens (Human)) (P01024 23-667 limits assumed, form in doubt, chain 1 of 2): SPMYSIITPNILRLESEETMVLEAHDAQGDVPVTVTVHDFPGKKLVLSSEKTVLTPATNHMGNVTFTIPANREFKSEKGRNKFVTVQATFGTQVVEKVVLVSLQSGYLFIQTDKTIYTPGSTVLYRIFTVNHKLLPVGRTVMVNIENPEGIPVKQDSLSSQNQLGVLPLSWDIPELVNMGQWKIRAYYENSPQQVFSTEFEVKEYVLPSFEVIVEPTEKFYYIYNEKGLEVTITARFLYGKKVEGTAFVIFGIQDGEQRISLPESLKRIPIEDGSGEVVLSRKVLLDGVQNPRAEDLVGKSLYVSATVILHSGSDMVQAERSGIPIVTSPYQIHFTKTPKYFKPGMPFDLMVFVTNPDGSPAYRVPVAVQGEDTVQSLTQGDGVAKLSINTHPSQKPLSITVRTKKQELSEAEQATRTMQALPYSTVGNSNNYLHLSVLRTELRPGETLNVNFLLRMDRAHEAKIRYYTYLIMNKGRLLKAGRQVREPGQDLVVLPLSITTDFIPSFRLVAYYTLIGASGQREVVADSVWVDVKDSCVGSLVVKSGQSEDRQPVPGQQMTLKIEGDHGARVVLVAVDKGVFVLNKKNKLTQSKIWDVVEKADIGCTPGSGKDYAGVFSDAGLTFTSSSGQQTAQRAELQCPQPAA
Sequence of C3 protein (MST affinity assay) (Homo sapiens (Human)) (P01024 672-1663 limits assumed, form in doubt, chain 2 of 2): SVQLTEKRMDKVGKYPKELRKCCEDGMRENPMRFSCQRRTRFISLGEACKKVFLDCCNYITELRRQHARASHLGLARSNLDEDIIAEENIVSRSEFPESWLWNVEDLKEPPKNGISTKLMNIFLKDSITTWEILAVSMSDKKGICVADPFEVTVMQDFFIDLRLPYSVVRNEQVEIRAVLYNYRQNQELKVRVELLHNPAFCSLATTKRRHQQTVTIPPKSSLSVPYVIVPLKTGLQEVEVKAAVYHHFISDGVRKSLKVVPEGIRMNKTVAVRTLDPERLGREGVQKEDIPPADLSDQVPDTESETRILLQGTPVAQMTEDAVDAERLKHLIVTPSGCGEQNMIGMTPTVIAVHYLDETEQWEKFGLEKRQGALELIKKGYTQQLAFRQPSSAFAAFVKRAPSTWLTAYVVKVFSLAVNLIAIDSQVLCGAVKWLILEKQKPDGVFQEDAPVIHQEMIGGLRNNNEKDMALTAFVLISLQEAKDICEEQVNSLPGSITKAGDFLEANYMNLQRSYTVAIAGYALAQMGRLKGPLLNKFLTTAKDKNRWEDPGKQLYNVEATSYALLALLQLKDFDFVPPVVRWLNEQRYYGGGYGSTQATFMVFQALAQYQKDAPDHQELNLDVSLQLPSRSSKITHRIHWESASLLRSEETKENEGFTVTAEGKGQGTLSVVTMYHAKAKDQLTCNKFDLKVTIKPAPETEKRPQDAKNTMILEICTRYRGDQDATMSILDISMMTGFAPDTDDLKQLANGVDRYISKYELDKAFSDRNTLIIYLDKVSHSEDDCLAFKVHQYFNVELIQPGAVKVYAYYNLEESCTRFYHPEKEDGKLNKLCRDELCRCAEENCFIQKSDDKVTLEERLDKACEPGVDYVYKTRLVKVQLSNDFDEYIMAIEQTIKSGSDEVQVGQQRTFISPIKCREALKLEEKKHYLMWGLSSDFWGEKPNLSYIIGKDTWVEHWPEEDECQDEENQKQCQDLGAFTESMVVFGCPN

pKd [1]	kon [1] [M⁻¹ s⁻¹]	koff [1] [s⁻¹]	IC50 (µm), classical pathway complement inhibition assay (ELISA, C3b/iC3b/C3d deposition from human plasma) [3] [nM]	Compound	also measured
7.34	387000	0.0176	–	CC[C@H](C)[C@H](NC(C)=O)C(=O)N[C@H]1CSSC[C@@H](C(=O)N[C@H](C(N)=O)[C@@H](C)O)NC(=O)[C@H](CCCNC(=N)N)NC(=O)[C@H](Cc2c[nH]cn2)NC(=O)C(C)(C)NC(=O)CNC(=O)C(Cc2c[nH]c3ccc(F)cc23)NC(=O)[C@H](CC(=O)O)NC(=O)[C@H](CCC(N)=O)NC(=O)[C@H](Cc2ccc3ccccc3c2)NC(=O)[C@H](C(C)C)NC1=O (some centres unmarked) [SEQ ID NO.3, Ac-ICV-2Nal-QD-5F-Trp-G-Aib-HRCT-NH2(C-C)] (Ac-ICV[2Nal]QD[ξTrp(5-F)]G[Aib]HRCT-NH2; disulfide 2-12)	pKd (C3 protein): 7.45
5.65	13100	0.0296	–	CC[C@@H]1NC(=O)[C@@H](NC(=O)[C@@H](NC(C)=O)[C@@H](C)CC)CSSC[C@@H](C(=O)N[C@H](C(N)=O)[C@@H](C)O)NC(=O)[C@H](CCCNC(=N)N)NC(=O)[C@H](Cc2c[nH]cn2)NC(=O)C(C)(C)NC(=O)CNC(=O)C(Cc2c[nH]c3ccc(F)cc23)NC(=O)[C@H](CC(=O)O)NC(=O)[C@H](CCC(N)=O)NC(=O)[C@H](Cc2ccc3ccccc3c2)NC1=O (some centres unmarked) [SEQ ID NO.5, Ac-IC-Abu- 2Nal -QD-5F-Trp -G-Aib-HRCT-NH2(C-C)] (Ac-IC[Abu][2Nal]QD[ξTrp(5-F)]G[Aib]HRCT-NH2; disulfide 2-12)	–
4.40	925	0.0369	–	CC[C@H](C)[C@H](NC(C)=O)C(=O)N[C@H]1CSSC[C@@H](C(=O)N[C@H](C(N)=O)[C@@H](C)O)NC(=O)[C@H](CCCNC(=N)N)NC(=O)[C@H](Cc2c[nH]cn2)NC(=O)C(C)(C)NC(=O)CNC(=O)C(Cc2c[nH]c3ccc(F)cc23)NC(=O)[C@H](CC(=O)O)NC(=O)[C@H](CCC(N)=O)NC(=O)[C@H](Cc2ccc(C(=O)c3ccccc3)cc2)NC(=O)[C@H](Cc2ccc(O)cc2)NC1=O (stereo partly drawn) [SEQ ID NO.6, Ac-IC-Tyr-Bpa-QD-5F-Trp -G-Aib-HRCT-NH2(C-C)] (Ac-ICY[Bpa]QD[ξTrp(5-F)]G[Aib]HRCT-NH2; disulfide 2-12)	–
–	–	–	920	SEQ ID NO.2: Ac-ICV-AzaTrp-QD-5F-Trp-G-Aib-HRCT-NH2 (C-C) (peptide)	pKd [4]: 7.34; pKd [5]: 7.61; pKd [6]: 6.94
–	–	–	2260	SEQ ID NO.4: Ac-IC-Abu-W(CH3)-QD-5F-Trp-G-Pip-HRCT-NH2 (C-C) (peptide)	pKd [4]: 6.45

Further lines, the compound ahead of its results:

Compound	pKd [1]	kon [1] [M⁻¹ s⁻¹]	koff [1] [s⁻¹]	IC50 (µm), classical pathway complement inhibition assay (ELISA, C3b/iC3b/C3d deposition from human plasma) [3] [nM]	also measured
CC[C@H](C)[C@H](NC(C)=O)C(=O)N[C@H]1CSSC[C@@H](C(=O)N[C@H](C(N)=O)[C@@H](C)O)NC(=O)[C@H](CCCNC(=N)N)NC(=O)[C@H](Cc2c[nH]cn2)NC(=O)C(C)(C)NC(=O)CNC(=O)[C@H](Cc2ccc3ccccc3c2)NC(=O)[C@H](CC(=O)O)NC(=O)[C@H](CCC(N)=O)NC(=O)[C@H](Cc2cn(C)c3ccccc23)NC(=O)[C@H](C(C)C)NC1=O [SEQ ID NO.1, Ac-ICV-W(CH3)-QD-2Nal -G-Aib-HRCT-NH2(C-C)] (Ac-ICV[Trp(1-Me)]QD[2Nal]G[Aib]HRCT-NH2; disulfide 2-12)	5.50	15400	0.0492	–	–
CC[C@H](C)[C@H](NC(C)=O)C(=O)N[C@H]1CSSC[C@@H](C(=O)N[C@H](C(N)=O)[C@@H](C)O)NC(=O)[C@H](CCCNC(=N)N)NC(=O)[C@H](Cc2c[nH]cn2)NC(=O)C(C)(C)NC(=O)CNC(=O)C(Cc2c[nH]c3ccc(F)cc23)NC(=O)[C@H](CC(=O)O)NC(=O)[C@H](CCC(N)=O)NC(=O)[C@H](Cc2c[nH]c3ncccc23)NC(=O)[C@H](C(C)C)NC1=O (some centres unmarked) [SEQ ID NO.2, Ac-ICV-AzaTrp-QD-5F-Trp-G-Aib-HRCT-NH2(C-C)] (Ac-ICV[Trp(7-aza)]QD[ξTrp(5-F)]G[Aib]HRCT-NH2; disulfide 2-12)	–	393000	0.0179	–	pIC50 [2]: 6.04
CC[C@@H]1NC(=O)[C@@H](NC(=O)[C@@H](NC(C)=O)[C@@H](C)CC)CSSC[C@@H](C(=O)N[C@H](C(N)=O)[C@@H](C)O)NC(=O)[C@H](CCCNC(=N)N)NC(=O)[C@H](Cc2c[nH]cn2)NC(=O)C2(CCNCC2)NC(=O)CNC(=O)C(Cc2c[nH]c3ccc(F)cc23)NC(=O)[C@H](CC(=O)O)NC(=O)[C@H](CCC(N)=O)NC(=O)[C@H](Cc2cn(C)c3ccccc23)NC1=O (some centres unmarked) [SEQ ID NO.4, Ac-IC-Abu-W(CH3)-QD-5F-Trp -G-Pip-HRCT-NH2(C-C)] (Ac-IC[Abu][Trp(1-Me)]QD[ξTrp(5-F)]G[Api]HRCT-NH2; disulfide 2-12)	–	112000	0.0393	–	pIC50 [2]: 5.65
SEQ ID NO.3: Ac-ICV-2Nal-QD-5F-Trp-G-Aib-HRCT-NH2 (C-C) (peptide)	–	–	–	1460	–
